We go through 8 cell lines from the supplement of paper PMC10307832.

Experiment in all cases: relative viability (nuclei count vs DMSO), 5 days (fraction); higher = more cells survive
Compound in assay [1]: CCn1c(-c2nonc2N)nc2c(C#CC(C)(C)O)ncc(OC[C@H]3CCCNC3)c21 + Cc1cc(Nc2cc(N3CCN(C)CC3)nc(Sc3ccc(NC(=O)C4CC4)cc3)n2)n[nH]1 [Tozasertib] (partner 0.1 µM)
A digest of the protocol: (§1)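 The day after seeding in 1536-well plates, lung cancer cell lines were treated by pin tool with a single drug, or with a fixed anchor-drug dose together with five library-drug doses (not always all listed) in √10 steps. After 5 days, a combined fix-and-stain solution (final 0.05% Triton X-100, 1% formaldehyde, 1 ug/ml Hoechst) was added. Nuclei counted on 4× images gave relative viability as treated counts over vehicle counts, reported as the median of duplicate plates.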

Compound in the assay “BAM7 + Navitoclax”: CCOC1=CC=CC=C1N=NC2=C(NN(C2=O)C3=NC(=CS3)C4=CC=CC=C4)C [BAM7] + CC1(C)CCC(c2ccc(Cl)cc2)=C(CN2CCN(c3ccc(C(=O)NS(=O)(=O)c4ccc(N[C@H](CCN5CCOCC5)CSc5ccccc5)c(S(=O)(=O)C(F)(F)F)c4)cc3)CC2)C1 [Navitoclax] (partner 0.5 µM)
The procedure, abridged:
as §1

Compound in the assay “BAM7 + Dasatinib”: CCOC1=CC=CC=C1N=NC2=C(NN(C2=O)C3=NC(=CS3)C4=CC=CC=C4)C [BAM7] + Cc1nc(Nc2ncc(C(=O)Nc3c(C)cccc3Cl)s2)cc(N2CCN(CCO)CC2)n1 [Dasatinib] (partner 0.075 µM)
A digest of the protocol:
as §1

Compound in assay [2]: CCn1c(-c2nonc2N)nc2c(C#CC(C)(C)O)ncc(OC[C@H]3CCCNC3)c21 + Nc1nc2[nH]cc(CCc3ccc(C(=O)N[C@@H](CCC(=O)O)C(=O)O)cc3)c2c(=O)[nH]1 [Pemetrexed] (partner 0.2 µM)
The procedure, abridged: as §1

For NCI-H322M, the relative viability in assay [1] (first compound 0.01 µM) worked out at 0.465; in assay [1] (first compound 0.03162 µM), 0.419; in assay [1] (first compound 0.1 µM), 0.423; in assay [1] (first compound 0.3162 µM), 0.42; in assay [1] (first compound 1 µM) it was 0.448; in the assay with BAM7 + Navitoclax (first compound 0.5 µM) it was 1.3. Besides, the relative viability is 1.22 with BAM7 + Navitoclax (first compound 5 µM); 1.18 with BAM7 + Navitoclax (first compound 15.81 µM); 1.06 with BAM7 + Navitoclax (first compound 50 µM); 0.271 with BAM7 + Dasatinib (first compound 0.5 µM); 0.287 with BAM7 + Dasatinib (first compound 5 µM); 0.287 in the assay with BAM7 + Dasatinib (first compound 15.81 µM). The relative viability with BAM7 + Dasatinib (first compound 50 µM) worked out at 0.281; in assay [2] (first compound 0.01 µM), 0.634; in assay [2] (first compound 0.03162 µM), 0.571; in assay [2] (first compound 0.1 µM) it was 0.556; in assay [2] (first compound 0.3162 µM) it was 0.568; in assay [2] (first compound 1 µM) it was 0.571.

Turning to NCI-H441, the relative viability in assay [1] (first compound 0.01 µM) was 0.699; in assay [1] (first compound 0.03162 µM), 0.53; in assay [1] (first compound 0.1 µM), 0.538; in assay [1] (first compound 0.3162 µM), 0.57; in assay [1] (first compound 1 µM), 0.56; in the assay with BAM7 + Navitoclax (first compound 0.5 µM), 0.688. Moreover, the relative viability with BAM7 + Navitoclax (first compound 5 µM) is 0.772; with BAM7 + Navitoclax (first compound 15.81 µM), 0.635; in the assay with BAM7 + Navitoclax (first compound 50 µM), 0.956; with BAM7 + Dasatinib (first compound 0.5 µM), 0.607; with BAM7 + Dasatinib (first compound 5 µM), 0.583; with BAM7 + Dasatinib (first compound 15.81 µM), 0.71. Besides, the relative viability with BAM7 + Dasatinib (first compound 50 µM) is 0.724; in assay [2] (first compound 0.01 µM), 0.295; in assay [2] (first compound 0.03162 µM) it was 0.251; in assay [2] (first compound 0.1 µM) it was 0.228; in assay [2] (first compound 0.3162 µM) it was 0.234; in assay [2] (first compound 1 µM), 0.272.

For the cell line NCI-H460, the relative viability in assay [1] (first compound 0.01 µM) amounted to 0.533; in assay [1] (first compound 0.03162 µM), 0.542; in assay [1] (first compound 0.1 µM) it was 0.447; in assay [1] (first compound 0.3162 µM), 0.461; in assay [1] (first compound 1 µM) it was 0.532; in the assay with BAM7 + Navitoclax (first compound 0.5 µM) it was 1.36. The relative viability with BAM7 + Navitoclax (first compound 5 µM) turned out to be 1.36; with BAM7 + Navitoclax (first compound 15.81 µM) it was 1.03; with BAM7 + Navitoclax (first compound 50 µM), 1.08; in the assay with BAM7 + Dasatinib (first compound 0.5 µM) it was 0.51; with BAM7 + Dasatinib (first compound 5 µM), 0.622; with BAM7 + Dasatinib (first compound 15.81 µM) it was 0.443. The relative viability with BAM7 + Dasatinib (first compound 50 µM) came to 0.691; in assay [2] (first compound 0.01 µM) it was 0.0616; in assay [2] (first compound 0.03162 µM), 0.0628; in assay [2] (first compound 0.1 µM) it was 0.063; in assay [2] (first compound 0.3162 µM) it was 0.0642; in assay [2] (first compound 1 µM), 0.0565.

As for NCI-H520, the relative viability in assay [1] (first compound 0.01 µM) worked out at 0.41; in assay [1] (first compound 0.03162 µM) it was 0.482; in assay [1] (first compound 0.1 µM) it was 0.323; in assay [1] (first compound 0.3162 µM), 0.358; in assay [1] (first compound 1 µM) it was 0.335; in the assay with BAM7 + Navitoclax (first compound 0.5 µM), 1.09. In addition, the relative viability with BAM7 + Navitoclax (first compound 5 µM) was found to be 1.2; in the assay with BAM7 + Navitoclax (first compound 15.81 µM), 1.11; with BAM7 + Navitoclax (first compound 50 µM), 1.18; in the assay with BAM7 + Dasatinib (first compound 0.5 µM) it was 0.184; with BAM7 + Dasatinib (first compound 5 µM), 0.171; with BAM7 + Dasatinib (first compound 15.81 µM), 0.207. Moreover, the relative viability is 0.245 with BAM7 + Dasatinib (first compound 50 µM); 0.565 in assay [2] (first compound 0.01 µM); 0.686 in assay [2] (first compound 0.03162 µM); 0.577 in assay [2] (first compound 0.1 µM); 0.523 in assay [2] (first compound 0.3162 µM); 0.352 in assay [2] (first compound 1 µM).

Consider NCI-H596, for which the relative viability in assay [1] (first compound 0.01 µM) came out at 1.07; in assay [1] (first compound 0.03162 µM) it was 0.886; in assay [1] (first compound 0.1 µM) it was 0.862; in assay [1] (first compound 0.3162 µM), 0.951; in assay [1] (first compound 1 µM), 0.792; with BAM7 + Navitoclax (first compound 0.5 µM), 0.82. Also, the relative viability came out at 0.937 with BAM7 + Navitoclax (first compound 5 µM); 0.92 in the assay with BAM7 + Navitoclax (first compound 15.81 µM); 1.06 in the assay with BAM7 + Navitoclax (first compound 50 µM); 0.621 in the assay with BAM7 + Dasatinib (first compound 0.5 µM); 0.644 in the assay with BAM7 + Dasatinib (first compound 5 µM); 0.578 with BAM7 + Dasatinib (first compound 15.81 µM). For the same cell line, the relative viability came out at 0.632 with BAM7 + Dasatinib (first compound 50 µM); 0.48 in assay [2] (first compound 0.01 µM); 0.443 in assay [2] (first compound 0.1 µM); 0.47 in assay [2] (first compound 0.3162 µM); 0.5 in assay [2] (first compound 1 µM).

With NCI-H647, the relative viability in assay [1] (first compound 0.01 µM) is 0.26; in assay [1] (first compound 0.03162 µM), 0.326; in assay [1] (first compound 0.1 µM), 0.255; in assay [1] (first compound 0.3162 µM) it was 0.312; in assay [1] (first compound 1 µM), 0.396; with BAM7 + Navitoclax (first compound 0.5 µM) it was 1.11. In addition, the relative viability in the assay with BAM7 + Navitoclax (first compound 5 µM) is 1.16; in the assay with BAM7 + Navitoclax (first compound 15.81 µM), 0.899; in the assay with BAM7 + Navitoclax (first compound 50 µM) it was 1.14; with BAM7 + Dasatinib (first compound 0.5 µM), 0.175; with BAM7 + Dasatinib (first compound 5 µM), 0.193; with BAM7 + Dasatinib (first compound 15.81 µM) it was 0.203. The relative viability with BAM7 + Dasatinib (first compound 50 µM) was determined as 0.248; in assay [2] (first compound 0.01 µM), 0.196; in assay [2] (first compound 0.03162 µM) it was 0.168; in assay [2] (first compound 0.1 µM), 0.179; in assay [2] (first compound 0.3162 µM), 0.163; in assay [2] (first compound 1 µM), 0.142.

With NCI-H838, the relative viability in assay [1] (first compound 0.01 µM) came to 0.276; in assay [1] (first compound 0.03162 µM) it was 0.295; in assay [1] (first compound 0.1 µM), 0.29; in assay [1] (first compound 0.3162 µM), 0.248; in assay [1] (first compound 1 µM), 0.253; in the assay with BAM7 + Navitoclax (first compound 0.5 µM) it was 1.2. In addition, the relative viability is 1.19 with BAM7 + Navitoclax (first compound 5 µM); 1.14 in the assay with BAM7 + Navitoclax (first compound 15.81 µM); 1.12 in the assay with BAM7 + Navitoclax (first compound 50 µM); 0.36 with BAM7 + Dasatinib (first compound 0.5 µM); 0.297 with BAM7 + Dasatinib (first compound 5 µM); 0.295 with BAM7 + Dasatinib (first compound 15.81 µM). Also, the relative viability was 0.335 with BAM7 + Dasatinib (first compound 50 µM); 0.248 in assay [2] (first compound 0.01 µM); 0.251 in assay [2] (first compound 0.03162 µM); 0.238 in assay [2] (first compound 0.1 µM); 0.225 in assay [2] (first compound 0.3162 µM); 0.255 in assay [2] (first compound 1 µM).

Consider NCI-H1355, for which the relative viability in assay [1] (first compound 0.01 µM) came to 0.572; in assay [1] (first compound 0.03162 µM) it was 0.629; in assay [1] (first compound 0.1 µM) it was 0.549; in assay [1] (first compound 0.3162 µM) it was 0.611; in assay [1] (first compound 1 µM) it was 0.612; in the assay with BAM7 + Navitoclax (first compound 0.5 µM) it was 0.856. The relative viability in the assay with BAM7 + Navitoclax (first compound 5 µM) was 0.94; with BAM7 + Navitoclax (first compound 15.81 µM), 0.773; with BAM7 + Navitoclax (first compound 50 µM), 0.957; in the assay with BAM7 + Dasatinib (first compound 0.5 µM), 0.572; in the assay with BAM7 + Dasatinib (first compound 5 µM) it was 0.61; with BAM7 + Dasatinib (first compound 15.81 µM), 0.46. Besides, the relative viability with BAM7 + Dasatinib (first compound 50 µM) turned out to be 0.549; in assay [2] (first compound 0.01 µM), 0.959; in assay [2] (first compound 0.03162 µM) it was 0.981; in assay [2] (first compound 0.1 µM) it was 1.02; in assay [2] (first compound 0.3162 µM) it was 1.02; in assay [2] (first compound 1 µM), 1.06.
